Data: patent EP4818176A1, “TETRACYCLIC DERIVATIVE INHIBITOR, AND PREPARATION METHOD AND USE THEREFOR” (Shanghai Hansoh Biomedical Co., Ltd., priority 2023, dated 2025)
Like-named read-outs stand apart in the source and are kept apart here.

Key:
[1] = molecular target: T1, PRMT5/MEP50-MTA protein complex (Homo sapiens, UniProt O14744); experiment: Thermal shift assay: thermal stability (melting temperature) of PRMT5/MEP50-MTA protein complex; format: binding; conditions: final compound concentration 8 µM; 2 µM PRMT5/MEP50, 2 µM MTA; Tm minus Tm of DMSO vehicle control
T1 construct: purchased Viva Biotech
T1 sequence (O14744 whole entry): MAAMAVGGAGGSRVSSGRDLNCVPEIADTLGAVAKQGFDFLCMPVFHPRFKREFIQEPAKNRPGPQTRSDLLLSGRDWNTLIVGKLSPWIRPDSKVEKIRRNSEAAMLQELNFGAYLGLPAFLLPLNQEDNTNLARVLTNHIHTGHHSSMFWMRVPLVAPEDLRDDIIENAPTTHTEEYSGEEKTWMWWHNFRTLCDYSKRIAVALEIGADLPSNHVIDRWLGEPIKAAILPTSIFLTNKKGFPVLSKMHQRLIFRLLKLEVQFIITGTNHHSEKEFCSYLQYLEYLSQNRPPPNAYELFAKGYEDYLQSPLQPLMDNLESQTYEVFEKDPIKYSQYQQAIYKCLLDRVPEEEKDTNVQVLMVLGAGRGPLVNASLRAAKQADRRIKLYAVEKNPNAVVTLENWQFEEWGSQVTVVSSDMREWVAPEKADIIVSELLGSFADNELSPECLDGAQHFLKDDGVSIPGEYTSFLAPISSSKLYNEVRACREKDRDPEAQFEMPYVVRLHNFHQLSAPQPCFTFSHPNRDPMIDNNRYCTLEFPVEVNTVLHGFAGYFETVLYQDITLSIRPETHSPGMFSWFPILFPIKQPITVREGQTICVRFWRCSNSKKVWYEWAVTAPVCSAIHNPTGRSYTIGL
T1 sequence (Q9BQA1 whole entry partner): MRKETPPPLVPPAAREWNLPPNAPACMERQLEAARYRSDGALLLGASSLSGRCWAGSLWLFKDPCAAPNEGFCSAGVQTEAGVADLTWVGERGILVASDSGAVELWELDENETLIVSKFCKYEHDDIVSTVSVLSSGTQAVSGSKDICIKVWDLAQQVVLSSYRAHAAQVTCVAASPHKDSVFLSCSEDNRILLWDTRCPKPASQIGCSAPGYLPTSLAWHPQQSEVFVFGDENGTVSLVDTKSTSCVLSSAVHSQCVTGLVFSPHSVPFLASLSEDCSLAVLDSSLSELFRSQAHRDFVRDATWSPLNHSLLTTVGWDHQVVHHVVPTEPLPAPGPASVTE
From the text: Test Example 1: Determination of the ability of the compounds of the present invention to improve the thermal stability (melting temperature) of the PRMT5/MEP50-MTA protein complex.
1 Experimental objective: The objective of this test example is to determine the ability of the compound to improve the thermal stability of the PRMT5/MEP50-MTA protein complex, resulting in an increase in the protein melting temperature. 2 Experimental instruments: Quantitative PCR instrument (Quantstudio6 Flex) was purchased from Life Technologies; pipettes were purchased from Eppendorf or Rainin. 3 Experimental reagents and consumables: PRMT5/MEP50 protein was prepared by Viva Biotech; HEPES was purchased from Thermo Fisher Scientific (Cat. No. 15630080); DTT was purchased from Sigma (Cat. No. 43816-10ml); sodium chloride was purchased from Invitrogen (Cat. No. AM9760G); Protein Thermal Shift™ Dye Kit was purchased from Thermo Fisher Scientific (Cat. No. 4461146); methylthioadenosine (MTA) was purchased from Sigma (Cat. No. D5011). 4 Experimental method: In this experiment, the thermal shift method was used to measure the change in the melting temperature (Tm) of the PRMT5/MEP50-MTA protein complex before and after compound binding, thereby characterising the ability of the compound to improve the thermal stability of the PRMT5/MEP50-MTA protein complex. A solution containing 50 mM HEPES, 10 mM DTT, 2 µM MTA, SYPRO Orange and 250 mM NaCl was prepared as the experimental buffer. Human PRMT5/MEP50 protein was added to a final concentration of 2 µM, and the mixture was incubated at room temperature for 30 minutes. The above reaction mixture was aliquoted into 8-strip PCR tubes at 19.5 µL per tube. Then 0.5 µL of test compound or DMSO was added to each tube, providing a total reaction volume of 20 µL and a final compound concentration of 8 µM. 2.5% DMSO was set as the vehicle control. After incubation at room temperature for 10 minutes, the PCR tubes were placed in a PCR instrument, and the melt curve function was selected to measure the melting temperature of the PRMT5/MEP50-MTA protein complex in different treatment groups (heated from 25°C to 95°C, 0.03°C/s). 5 Experimental data processing method: The experimental data files from the PCR instrument were imported into the thermal shift software to obtain the melting temperature (Tm) for each treatment group.

HCT116 wild-type cells = experiment: Cell proliferation inhibition (CellTiter-Glo), HCT116 wild-type cells; format: cell-based; conditions: Homo sapiens
From the text: (§1) Test Example 2: Determination of the inhibitory effect of the compounds of the present invention on the proliferation activity of HCT116 and MTAP Knockout HCT116 cells.
(§2) 1 Experimental objective: The objective of this test example is to determine the inhibitory effect of the compound on the proliferation activity of HCT116 wild-type and HCT116 MTAP knockout cells. 2 Experimental instruments: Centrifuge (Eppendorf 5810R); microplate reader (BioTek Synergy H1 or PerkinElmer Envision); pipette (Eppendorf or Rainin). 3 Experimental reagents: HCT116 and MTAP Knockout HCT116 cells were purchased from Nanjing Cobioer; Cell Titer-Glo was purchased from Promega (Cat. No. G7573); McCoy'5A was purchased from Gibco (Cat. No. 12330031); FBS was purchased from Gibco (Cat. No. 10091148); PBS was purchased from Gibco (Cat. No. 10010023); trypsin was purchased from Gibco (Cat. No. 25200056); cell culture plates were purchased from Corning (Cat. No. 3610). 4 Experimental method: HCT116 and MTAP Knockout HCT116 cells were cultured in McCoy'5A medium containing 10% FBS until an appropriate cell density was reached. The cells were then collected and adjusted to a suitable concentration using complete medium. The cell suspension was seeded into a 96-well plate at 90 µL per well and allowed to adhere overnight in a 37°C, 5% CO2 incubator. Compound solutions of various concentrations were prepared using DMSO and culture medium, with a vehicle control set. The compound solutions were added to the 96-well plate at 10 µL per well, and the plate was incubated in a 37°C, 5% CO2 incubator for an additional 72-240 hours. After incubation, CellTiter-Glo solution was added, and the mixture was mixed uniformly by shaking, followed by incubation in the dark for 10 to 30 minutes. Luminescence was measured using a Synergy H1 or Envision microplate reader. 5 Experimental data processing method: The inhibition rate was calculated using the luminescence signal values, and the concentrations along with the inhibition rates were subjected to non-linear regression curve fitting using Graphpad Prism software to obtain the IC50 values.

[2] = test system: MTAP Knockout HCT116 cells; experiment: Cell proliferation inhibition (CellTiter-Glo), HCT116 MTAP knockout cells; format: cell-based; conditions: for Selectivity: HCT116 IC50 versus MTAP Knockout HCT116 IC50; for IC50: Homo sapiens
From the text: as §1, §2

[3] = Pharmacokinetics in rats (plasma) after oral administration; format: in vivo; conditions: rat, po, SD rats, p.o. 5 mg/kg; for Cmax: read-out: Cmax; for MRT inf: read-out: MRT0-∞; for Tmax: read-out: tmax
Protocol: Test Example 4: Determination of the pharmacokinetics of the compounds of the present invention in rats (plasma) after oral administration.
1 Study objective: SD rats were used as test animals to study the pharmacokinetic behaviour of the following example compounds in rats (plasma) after oral administration at a dose of 5 mg/kg. 2 Test scheme • 2.1 Test drugs: Vehicle formula: 0.5% CMC-Na (1% Tween 80); the examples of the present invention, made in house. • 2.2 Test animals: 3 SD rats per group, male, purchased from Shanghai Bikai Keyi Biotechnology Co., Ltd., with animal license number (SCXK (Shanghai) 2018-0006, No.20180006037467). • 2.3 Administration: 3 SD rats per group, male, were fasted overnight and then respectively administered PO at a dose of 5 mg/kg and a volume of 10 mL/kg. • 2.4 Sample collection: 0.2 mL of blood was collected from the jugular vein of rats before administration and at 0, 0.25, 0.5, 1, 2, 4, 6, 8 and 24 h after administration, and placed in EDTA-K2test tubes, and the test tubes were centrifuged at 6,000 rpm at 4°C for 6 min to separate the plasma, which was stored at -80°C. The animals were fed 4 h after administration. • 2.5 Sample treatment • 1) 160 uL of acetonitrile was added to 40 uL of plasma sample for precipitation, and after mixing, the mixture was centrifuged at 3,500 × g for 5-20 minutes. • 2) 100 uL of the treated supernatant solution was taken for LC/MS/MS analysis to determine the concentration of the test compounds. • 2.6 Liquid phase analysis • Liquid phase conditions: Shimadzu LC-20AD pump;mass spectrometry conditions: AB Sciex API 4000 mass spectrometer • Chromatographic column: Phenomenex Gemiu 5 um C18 50 × 4.6 mm • Mobile phase: solution A: 0.1% formic acid in water, solution B: methanol • Flow rate: 1.0 mL/min, elution time: 0-4.0 min, with eluents as follows:
Experimental results and analysis: The main pharmacokinetic parameters were calculated using WinNonlin 8.2.

[4] = HCT-116, HCT116 wild-type cells, proliferation inhibition, Cell Titer-Glo, read-out: HCT116 IC50
[5] = HCT-116, MTAP Knockout HCT116 cells, proliferation inhibition, Cell Titer-Glo, read-out: MTAP Knockout HCT116 IC50
[6] = HCT-116, read-out: MTAP Knockout HCT116 IC50

| Compound | ΔTm at 8 µM [1] | IC50 (HCT116 wild-type cells; [4]) | Selectivity [2] | IC50 [2, 5] | IC50 (HCT116 wild-type cells; HCT-116, read-out: HCT116 IC50) | IC50 [2, 6] | also measured |
| --- | --- | --- | --- | --- | --- | --- | --- |
| Nc1nc2cc3c(cc2c2c1COC2)C(=O)N(C1COCc2nc(C(F)(F)F)ccc21)CCC/C=C\3 (single isomer, unassigned) [Example 165-P1] | 11.9 °C | 682 nM | 132 | 5.2 nM | – | – | AUC(0-inf) ([3]; male): 999 ng·h/mL; half-life ([3]; male): 1.5 h; Cmax ([3]; male): 321 ng/mL; MRT inf ([3]; male): 2.5 h; Tmax ([3]; male): 1 h |
| Nc1nc2cc3c(cc2n2cncc12)C(=O)N(C1COc2cc(C(F)(F)F)ccc21)CCC/C=C\3 (racemic) [Example 164, (Z)-4-Amino-12-(6-(trifluoromethyl)-2,3-dihydrobenzofuran-3-yl)-9,10,11,12-tetrahydro-13H-azo[4,3-g]imidazo[1,5-a]quinoxalin-13-one] | 11.2 °C | 6630 nM | 406 | 16 nM | – | – | AUC(0-inf) ([3]; in vivo): 2520 ng·h/mL; half-life ([3]; in vivo): 4.7 h; Cmax ([3]; in vivo): 183 ng/mL; MRT inf ([3]; in vivo): 7.6 h; Tmax ([3]; in vivo): 4 h |
| C[C@H]1OCc2c1c(N)nc1cc3c(cc21)C(=O)N(Cc1ccc(S(F)(F)(F)(F)F)cn1)CCCOC3 [Example 437-P1, (R)-4-Amino-3-methyl-12-((5-(pentafluorosulphanyl)pyridin-2-yl)methyl)-3,7,9,10,11,12-hexahydrofuro[3,4-c][1,5]oxazolo[7,8-g]quinolin-13(1H)-one] | 12.6 °C | – | 85 | – | 187 nM | 2.2 nM | AUC(0-inf) ([3]; in vivo): 2050 ng·h/mL; half-life ([3]; in vivo): 2.4 h; Cmax ([3]; in vivo): 318 ng/mL; MRT inf ([3]; in vivo): 3.7 h; Tmax ([3]; in vivo): 2 h |
| Nc1nc2cc3c(cc2c2c1COC2)C(=O)N(Cc1ccc(S(F)(F)(F)(F)F)cn1)CCCOC3 [Example 434, 4-Amino-3-methyl-12-((5-(pentafluorosulphanyl)pyridin-2-yl)methyl)-3,7,9,10,11,12-hexahydrofuro[3,4-c][1,5]oxazolo[7,8-g]quinolin-13(1H)-one] | 12.2 °C | – | 87 | – | 578 nM | 6.7 nM | AUC(0-inf) [3]: 2330 ng·h/mL; half-life [3]: 3.1 h; Cmax [3]: 273 ng/mL; MRT inf [3]: 5.3 h; Tmax [3]: 2 h |
| C[C@H]1CCCN(Cc2ccc(C(F)(F)F)cn2)C(=O)c2cc3c(cc2C1)nc(N)c1cncn13 [Example 514-P2, (S)-4-amino-8-methyl-12-((5-(trifluoromethyl)pyridin-2-yl)methyl)-7,8,9,10,11,12-hexahydro-13H-azo[4,3-g]imidazo[1,5-a]quinoxalin-13-one] | 11.6 °C | – | 71 | – | 1000 nM | 14 nM | – |
| CC1OCc2c1c(N)nc1cc3c(cc21)C(=O)N(Cc1ccc(S(F)(F)(F)(F)F)cn1)CCCOC3 (racemic) [Example 437, 4-Amino-3-methyl-12-((5-(pentafluorosulphanyl)pyridin-2-yl)methyl)-3,7,9,10,11,12-hexahydrofuro[3,4-c][1,5]oxazolo[7,8-g]quinolin-13(1H)-one] | 12.2 °C | – | 64 | – | 191 nM | 3 nM | – |
| CC1OCc2c1c(N)nc1cc3c(cc21)C(=O)N(Cc1ccc(C(F)(F)F)cn1)CCCOC3 (stereo not drawn) [Example 184, 4-Amino-3-methyl-12-((5-(trifluoromethyl)pyridin-2-yl)methyl)-3,7,9,10,11,12-hexahydrofuro[3,4-c][1,5]oxazolo [7,8-g]quinoxalin-13(1H)-one] | 11.1 °C | – | 108 | – | 2290 nM | 21 nM | – |
| Cn1ncc2c(N)nc3cc4c(cc3c21)C(=O)N(C1COc2cc(C(F)(F)F)ccc21)CCCOC4 (stereo not drawn) [Example 270, 4-Amino-1-methyl-12-(6-(trifluoromethyl)-2,3-dihydrobenzofuran-3-yl)-1,7,9,10,11,12-hexahydro-13H-[1,5]oxazonino[7,8-g]pyrazolo[4,3-c]quinolin-13-one] | 10.8 °C | – | 147 | – | 2450 nM | 17 nM | – |
| CC1CCN(Cc2ccc(C(F)(F)F)cn2)C(=O)c2cc3c(cc2CO1)nc(N)c1cncn13 (stereo not drawn) [Example 177, 4-Amino-9-methyl-12-((5-(trifluoromethyl)pyridin-2-yl)methyl)-9,10,11,12-tetrahydroimidazo[1,5-a][1,5]oxazolo[8,7-g]quinoxalin-13(7H)-one] | 11.2 °C | – | 84 | – | 1510 nM | 18 nM | – |
| CC(c1ccc(C(F)(F)F)cn1)N1CC/C=C\c2cc3nc(N)c4cncn4c3cc2C1=O (single isomer, unassigned) [Example 313-P1] | 11.1 °C | 1020 nM | 59 | 17 nM | – | – | – |
| Nc1nc2cc3c(cc2n2cncc12)C(=O)N(Cc1ccc(S(F)(F)(F)(F)F)cc1)CCCOC3 [Example 214, 4-Amino-12-(4-(pentafluoro-λ^6-sulphanyl)benzyl)-9,10,11,12-tetrahydroimidazo[1,5-a][1,5]oxazonino[8,7-g]quinoxalin-13(7H)-one] | 12.3 °C | 106 nM | 20 | 5.3 nM | – | – | – |
| Nc1nc2cc3c(cc2n2cncc12)C(=O)N(Cc1ccc(C24CC(C2)C4)cn1)CCCOC3 [Example 484, 4-Amino-12-((5-(bicyclo[1.1.1]pentan-1-yl)pyridin-2-yl)methyl)-9,10,11,12-tetrahydroimidazo[1,5-a][1,5]oxazolo[8,7-g]quinoxalin-13(7H)-one] | 11.9 °C | 379 nM | 38 | 9.9 nM | – | – | – |
| CC1CCCN(Cc2ccc(C(F)(F)F)cn2)C(=O)c2cc3c(cc2C1)nc(N)c1cncn13 (racemic) [Example 514, 4-Amino-8-methyl-12-((5-(trifluoromethyl)pyridin-2-yl)methyl)-7,8,9,10,11,12-hexahydro-13H-azo[4,3-g]imidazo[1,5-a]quinoxalin-13-one] | 10.9 °C | – | 55 | – | 807 nM | 15 nM | – |
